Measurements taken from PMC9246869, “Allosteric inhibition of PPM1D serine/threonine phosphatase via an altered conformational state” (Nature Communications, 2022).
Where “and” joins values, the source holds several entries; their conditions need not be identical. Equal values may be shown once.

Molecular target: T1, PPM1D1–420 (Homo sapiens, UniProt O15297)
T1 construct: PPM1D1–420 was PCR-amplified from the synthesized gene with BsaI sites; His(6)-SUMO (N, cleaved yes); made in house; host or cells: E. coli BL21 (DE3)
T1 sequence (O15297 1-420): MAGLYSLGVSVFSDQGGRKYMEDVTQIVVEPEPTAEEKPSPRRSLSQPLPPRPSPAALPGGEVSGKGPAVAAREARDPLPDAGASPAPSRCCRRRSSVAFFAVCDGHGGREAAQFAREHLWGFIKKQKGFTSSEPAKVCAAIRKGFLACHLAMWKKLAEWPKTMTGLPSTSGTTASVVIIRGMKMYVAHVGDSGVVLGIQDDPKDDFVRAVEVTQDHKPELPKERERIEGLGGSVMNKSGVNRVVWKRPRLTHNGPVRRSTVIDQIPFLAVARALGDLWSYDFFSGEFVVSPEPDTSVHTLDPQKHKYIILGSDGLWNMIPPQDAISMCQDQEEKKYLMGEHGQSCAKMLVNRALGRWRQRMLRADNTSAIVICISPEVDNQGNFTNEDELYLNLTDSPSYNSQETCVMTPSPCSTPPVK
Assay: FDP (fluorescein diphosphate) enzymatic assay
Format: biochemical
Parameters: FDP assay rate (Fig 3B): unit not given here
Conditions: for FDP assay rate (Fig 3B): triplicates; for FDP Assay, signal relative to 0 nM GSK (=100): PPM1D1-420, individual runs, listed as GSK
Method: The FDP assay was adapted from reported protocol with minor modifications. Fluorescein diphosphate tetra-ammonium salt (CAS 217305-49-2) was purchased from AAT Bioquest (Cat No.11600). The assay was carried out on a 384-well plate (Corning Cat No.3575) with assay buffer containing 50 mM Tris (pH 7.5), 50 mM NaCl, 30 mM MgCl2, 0.01% tween 20, and 2% DMSO. Reactions were initiated with the addition of FDP to a solution containing wild-type PPM1D or one of its variants, to a final concentration of 5 nM for PPM1D and 100 μM for FDP (or as indicated in Kcat/KM measurements). A fluorescent signal was detected on a Spectramax microplate reader (485/530 nm) for the next 15 min at room temperature with an interval for data collection of 45 s. For the IC50 measurement, the compound was pre-incubated with PPM1D for 1 h before addition of the substrate.

In the case of `Cc1ncc(Cl)cc1NCc1ccc(C(=O)N[C@@H](CC2CCCC2)C(=O)NC2CC2)s1` [GSK2830371], the mode of inhibition (Michaelis–Menten kinetics, FDP hydrolysis) is reported as “noncompetitive inhibitor”, the IC50 (PPM1D1–420, compound pre-incubated 1 h) is reported as about 6 nM and the “FDP assay rate (Fig 3B)” value ([FDP] 25 uM, inhibitor 0.98 (unit not given)) is reported as 0.1081 and 0.1018 and 0.09496. The “FDP assay rate (Fig 3B)” value ([FDP] 25 uM, inhibitor 1.95 (unit not given)) was 0.0895 and 0.07795 and 0.08008, the “FDP assay rate (Fig 3B)” value ([FDP] 25 uM, inhibitor 3.9 (unit not given)) was 0.06795 and 0.05591 and 0.06219 and the “FDP assay rate (Fig 3B)” value ([FDP] 25 uM, inhibitor 7.8 (unit not given)) was 0.03815 and 0.02398 and 0.0308. The “FDP assay rate (Fig 3B)” value ([FDP] 25 uM, inhibitor 15.6 (unit not given)) was 0.01708 and 0.01354 and 0.01271, the “FDP assay rate (Fig 3B)” value ([FDP] 50 uM, inhibitor 0.98 (unit not given)) was 0.154 and 0.1613 and 0.1584 and the “FDP assay rate (Fig 3B)” value ([FDP] 50 uM, inhibitor 1.95 (unit not given)) was 0.1193 and 0.1343 and 0.126. The “FDP assay rate (Fig 3B)” value ([FDP] 50 uM, inhibitor 3.9 (unit not given)) was 0.09839 and 0.1118 and 0.09908, the “FDP assay rate (Fig 3B)” value ([FDP] 50 uM, inhibitor 7.8 (unit not given)) was 0.04672 and 0.06633 and 0.05157 and the “FDP assay rate (Fig 3B)” value ([FDP] 50 uM, inhibitor 15.6 (unit not given)) was 0.02583 and 0.03504 and 0.03088. For the same molecule, the “FDP assay rate (Fig 3B)” value ([FDP] 100 uM, inhibitor 0.98 (unit not given)) was 0.2227 and 0.2316 and 0.2315, the “FDP assay rate (Fig 3B)” value ([FDP] 100 uM, inhibitor 1.95 (unit not given)) was 0.1741 and 0.1931 and 0.1914 and the “FDP assay rate (Fig 3B)” value ([FDP] 100 uM, inhibitor 3.9 (unit not given)) was 0.1254 and 0.1375 and 0.1433. For the same molecule, the “FDP assay rate (Fig 3B)” value ([FDP] 100 uM, inhibitor 7.8 (unit not given)) was 0.08834 and 0.102 and 0.1128, the “FDP assay rate (Fig 3B)” value ([FDP] 100 uM, inhibitor 15.6 (unit not given)) was 0.04867 and 0.06283 and 0.04506 and the “FDP assay rate (Fig 3B)” value ([FDP] 100 uM, inhibitor 31.3 (unit not given)) was 0.02471 and 0.03171 and 0.02136. The “FDP assay rate (Fig 3B)” value ([FDP] 200 uM, inhibitor 0.98 (unit not given)) was 0.2541 and 0.2837 and 0.2718, the “FDP assay rate (Fig 3B)” value ([FDP] 200 uM, inhibitor 1.95 (unit not given)) was 0.1754 and 0.2253 and 0.2249 and the “FDP assay rate (Fig 3B)” value ([FDP] 200 uM, inhibitor 3.9 (unit not given)) was 0.1214 and 0.1628 and 0.1643. For the same molecule, the “FDP assay rate (Fig 3B)” value ([FDP] 200 uM, inhibitor 7.8 (unit not given)) was 0.119 and 0.111 and 0.098, the “FDP assay rate (Fig 3B)” value ([FDP] 200 uM, inhibitor 15.6 (unit not given)) was 0.06395 and 0.07091 and 0.07759 and the “FDP assay rate (Fig 3B)” value ([FDP] 200 uM, inhibitor 31.3 (unit not given)) was 0.03445 and 0.04201 and 0.04948. For the same molecule, the “FDP assay rate (Fig 3B)” value ([FDP] 200 uM, inhibitor 62.5 (unit not given)) was 0.03178 and 0.03296 and 0.03025, the “FDP assay rate (Fig 3B)” value ([FDP] 400 uM, inhibitor 0.98 (unit not given)) was 0.3661 and 0.3766 and 0.3211 and the “FDP assay rate (Fig 3B)” value ([FDP] 400 uM, inhibitor 1.95 (unit not given)) was 0.2969 and 0.3135 and 0.2543. The “FDP assay rate (Fig 3B)” value ([FDP] 400 uM, inhibitor 3.9 (unit not given)) was 0.2182 and 0.2333 and 0.1765, the “FDP assay rate (Fig 3B)” value ([FDP] 400 uM, inhibitor 7.8 (unit not given)) was 0.2094 and 0.221 and 0.1442 and the “FDP assay rate (Fig 3B)” value ([FDP] 400 uM, inhibitor 15.6 (unit not given)) was 0.1122 and 0.1116 and 0.1013. The “FDP assay rate (Fig 3B)” value ([FDP] 400 uM, inhibitor 31.3 (unit not given)) was 0.06577 and 0.07799 and 0.08598, the “FDP assay rate (Fig 3B)” value ([FDP] 400 uM, inhibitor 62.5 (unit not given)) was 0.04782 and 0.06273 and 0.0378 and the “FDP assay rate (Fig 3B)” value ([FDP] 400 uM, inhibitor 125 (unit not given)) was 0.03598 and 0.04023 and 0.04026. For the same molecule, the “FDP Assay, signal relative to 0 nM GSK (=100)” value ([GSK] 0.292969 nM) was 86.8743 and 86.4893, the “FDP Assay, signal relative to 0 nM GSK (=100)” value ([GSK] 0.585938 nM) was 87.0301 and 86.6545 and the “FDP Assay, signal relative to 0 nM GSK (=100)” value ([GSK] 1.17188 nM) was 79.2709 and 79.2522. The “FDP Assay, signal relative to 0 nM GSK (=100)” value ([GSK] 2.34375 nM) was 68.8335 and 60.4469, the “FDP Assay, signal relative to 0 nM GSK (=100)” value ([GSK] 4.6875 nM) was 48.948 and 39.1972 and the “FDP Assay, signal relative to 0 nM GSK (=100)” value ([GSK] 9.375 nM) was 35.4075 and 36.7435. For the same molecule, the “FDP Assay, signal relative to 0 nM GSK (=100)” value ([GSK] 18.75 nM) was 24.9745 and 29.6638, the “FDP Assay, signal relative to 0 nM GSK (=100)” value ([GSK] 37.5 nM) was 10.1395 and 7.848 and the “FDP Assay, signal relative to 0 nM GSK (=100)” value ([GSK] 75 nM) was 7.727 and 7.844. For the same molecule, the “FDP Assay, signal relative to 0 nM GSK (=100)” value ([GSK] 150 nM) was 2.646 and -0.6809 and the “FDP Assay, signal relative to 0 nM GSK (=100)” value ([GSK] 300 nM) was 0.03588 and 0.07574.
